These results are taken from patent US6960574B2, “Antagonists of RF-amide neuropeptides” (University of Florida, priority 2002, dated 2005).

Peptide text beside a SMILES is read from it. * marks the point of attachment. Dansyl = CN(C)c1cccc2c(S(=O)(=O)*)cccc12

The assay has as its system receptor labeled by the radioiodinated analogue of 1 (4, [125I]-YLFQPQRF-NH2); neuropeptide FF receptor. In words: Competitive radioligand binding against 4 ([125I]Y8F-amide). To be noted: mixture-based positional scanning; difference from averaged radioligand displacement of whole library (0); about 80 a.u. = 10-fold change in Ki. (In general: Loss of bound radioactivity is the signal in a displacement assay; it reports binding, not function.)
As to `CN(C)c1cccc2c(S(=O)(=O)N[C@@H](Cc3ccc(O)cc3)C(=O)N[C@@H](CO)C(=O)N[C@@H](CCCNC(=N)N)C(N)=O)cccc12` [Dansyl-YSR-amide] (Dansyl-Tyr-Ser-Arg-NH2), the “Relative Binding Index (RBI)” value is recorded as 28 a.u.

On to `CN(C)c1cccc2c(S(=O)(=O)N[C@@H](Cc3ccccc3)C(=O)N[C@@H](CO)C(=O)N[C@@H](CCCNC(=N)N)C(N)=O)cccc12` [Dansyl-FSR-amide] (Dansyl-Phe-Ser-Arg-NH2), for which the “Relative Binding Index (RBI)” value amounted to 30 a.u.

`CN(C)c1cccc2c(S(=O)(=O)N[C@@H](CCCCN)C(=O)N[C@@H](Cc3ccccc3)C(=O)N[C@@H](CCCNC(=N)N)C(N)=O)cccc12` [Dansyl-KFR-amide] (Dansyl-Lys-Phe-Arg-NH2): the “Relative Binding Index (RBI)” value came to 23 a.u.

With `CC(C)C[C@H](NS(=O)(=O)c1cccc2c(N(C)C)cccc12)C(=O)N[C@@H](CCCNC(=N)N)C(=O)N[C@@H](CCCNC(=N)N)C(N)=O` [Dansyl-LRR-amide] (Dansyl-Leu-Arg-Arg-NH2), the “Relative Binding Index (RBI)” value is recorded as −33 a.u.

Turning to `CN(C)c1cccc2c(S(=O)(=O)N3CCC[C@H]3C(=O)N[C@@H](Cc3ccccc3)C(=O)N[C@@H](CCCNC(=N)N)C(N)=O)cccc12` [Dansyl-PFR-amide] (Dansyl-Pro-Phe-Arg-NH2), the “Relative Binding Index (RBI)” value is −49 a.u.

As to `CC(C)[C@H](NC(=O)[C@H](C)NS(=O)(=O)c1cccc2c(N(C)C)cccc12)C(=O)N[C@@H](CCCNC(=N)N)C(N)=O` [Dansyl-AVR-amide] (Dansyl-Ala-Val-Arg-NH2), the “Relative Binding Index (RBI)” value came to 7 a.u.

Regarding `CN(C)c1cccc2c(S(=O)(=O)N[C@@H](Cc3ccc(O)cc3)C(=O)N[C@@H](Cc3ccccc3)C(=O)N[C@@H](CCCNC(=N)N)C(N)=O)cccc12` [Dansyl-YFR-amide] (Dansyl-Tyr-Phe-Arg-NH2), the “Relative Binding Index (RBI)” value is 6 a.u.

Consider `CC[C@H](C)[C@H](NS(=O)(=O)c1cccc2c(N(C)C)cccc12)C(=O)N[C@@H](CC(C)C)C(=O)N[C@@H](CCCNC(=N)N)C(N)=O` [Dansyl-ILR-amide] (Dansyl-Ile-Leu-Arg-NH2), for which the “Relative Binding Index (RBI)” value is reported as −19 a.u.

Take `C[C@@H](O)[C@H](NC(=O)[C@H](CCC(N)=O)NS(=O)(=O)c1cccc2c(N(C)C)cccc12)C(=O)N[C@@H](CCCNC(=N)N)C(N)=O` [Dansyl-QTR-amide] (Dansyl-Gln-Thr-Arg-NH2): the “Relative Binding Index (RBI)” value stood at 27 a.u.

On to `CC(O)C(NS(=O)(=O)c1cccc2c(N(C)C)cccc12)C(=O)NC(Cc1ccccc1)C(=O)NC(CCCNC(=N)N)C(N)=O` (stereo not drawn) [Dansyl-TFR-amide] (Dansyl-Thr-Phe-Arg-NH2; configuration not given here), for which the “Relative Binding Index (RBI)” value was −10 a.u.

For the molecule `CSCC[C@H](NS(=O)(=O)c1cccc2c(N(C)C)cccc12)C(=O)N1CCC[C@H]1C(=O)N[C@@H](CCCNC(=N)N)C(N)=O` [Dansyl-MPR-amide] (Dansyl-Met-Pro-Arg-NH2), the “Relative Binding Index (RBI)” value is given as −41 a.u.

Regarding `CC[C@H](C)[C@H](NC(=O)[C@@H](NS(=O)(=O)c1cccc2c(N(C)C)cccc12)[C@@H](C)O)C(=O)N[C@@H](CCCNC(=N)N)C(N)=O` [Dansyl-TIR-amide] (Dansyl-Thr-Ile-Arg-NH2), the “Relative Binding Index (RBI)” value is on record as −2 a.u.

As to `CC(C)[C@H](NS(=O)(=O)c1cccc2c(N(C)C)cccc12)C(=O)N[C@@H](CCC(N)=O)C(=O)N[C@@H](CCCNC(=N)N)C(N)=O` [Dansyl-VQR-amide] (Dansyl-Val-Gln-Arg-NH2), the “Relative Binding Index (RBI)” value is reported as 9 a.u.

With `CN(C)c1cccc2c(S(=O)(=O)N[C@@H](CC(N)=O)C(=O)N[C@@H](CC(N)=O)C(=O)N[C@@H](CCCNC(=N)N)C(N)=O)cccc12` [Dansyl-NNR-amide] (Dansyl-Asn-Asn-Arg-NH2), the “Relative Binding Index (RBI)” value came out at 14 a.u.

`C[C@H](NC(=O)[C@H](Cc1ccc(O)cc1)NS(=O)(=O)c1cccc2c(N(C)C)cccc12)C(=O)N[C@@H](CCCNC(=N)N)C(N)=O` [Dansyl-YAR-amide] (Dansyl-Tyr-Ala-Arg-NH2): the “Relative Binding Index (RBI)” value was −42 a.u.

For the molecule `CC(C)C[C@H](NC(=O)[C@H](CCC(=O)O)NS(=O)(=O)c1cccc2c(N(C)C)cccc12)C(=O)N[C@@H](CCCNC(=N)N)C(N)=O` [Dansyl-ELR-amide] (Dansyl-Glu-Leu-Arg-NH2), the “Relative Binding Index (RBI)” value turned out to be 8 a.u.

`CC[C@H](C)[C@H](NC(=O)[C@H](CCC(N)=O)NS(=O)(=O)c1cccc2c(N(C)C)cccc12)C(=O)N[C@@H](CCCNC(=N)N)C(N)=O` [Dansyl-QIR-amide] (Dansyl-Gln-Ile-Arg-NH2): the “Relative Binding Index (RBI)” value was 28 a.u.

With `CSCC[C@H](NC(=O)[C@@H]1CCCN1S(=O)(=O)c1cccc2c(N(C)C)cccc12)C(=O)N[C@@H](CCCNC(=N)N)C(N)=O` [Dansyl-PMR-amide] (Dansyl-Pro-Met-Arg-NH2), the “Relative Binding Index (RBI)” value is listed as −48 a.u.

In the case of `CC[C@H](C)[C@H](NS(=O)(=O)c1cccc2c(N(C)C)cccc12)C(=O)N[C@@H](Cc1ccc(O)cc1)C(=O)N[C@@H](CCCNC(=N)N)C(N)=O` [Dansyl-IYR-amide] (Dansyl-Ile-Tyr-Arg-NH2), the “Relative Binding Index (RBI)” value is recorded as −12 a.u.

With `CN(C)c1cccc2c(S(=O)(=O)N[C@@H](CO)C(=O)N[C@@H](Cc3c[nH]c4ccccc34)C(=O)N[C@@H](CCCNC(=N)N)C(N)=O)cccc12` [Dansyl-SWR-amide] (Dansyl-Ser-Trp-Arg-NH2), the “Relative Binding Index (RBI)” value worked out at 25 a.u.

As for `CN(C)c1cccc2c(S(=O)(=O)N[C@@H](CCCCN)C(=O)N3CCC[C@H]3C(=O)N[C@@H](CCCNC(=N)N)C(N)=O)cccc12` [Dansyl-KPR-amide] (Dansyl-Lys-Pro-Arg-NH2), the “Relative Binding Index (RBI)” value turned out to be 28 a.u.

For the molecule `CC(C)[C@H](NS(=O)(=O)c1cccc2c(N(C)C)cccc12)C(=O)N[C@@H](CC(N)=O)C(=O)N[C@@H](CCCNC(=N)N)C(N)=O` [Dansyl-VNR-amide] (Dansyl-Val-Asn-Arg-NH2), the “Relative Binding Index (RBI)” value is given as −3 a.u.

Consider `CN(C)c1cccc2c(S(=O)(=O)N[C@@H](CC(=O)O)C(=O)N[C@@H](Cc3ccc(O)cc3)C(=O)N[C@@H](CCCNC(=N)N)C(N)=O)cccc12` [Dansyl-DYR-amide] (Dansyl-Asp-Tyr-Arg-NH2), for which the “Relative Binding Index (RBI)” value was −7 a.u.

Regarding `CN(C)c1cccc2c(S(=O)(=O)N[C@@H](Cc3ccccc3)C(=O)N[C@@H](CCCNC(=N)N)C(=O)N[C@@H](CCCNC(=N)N)C(N)=O)cccc12` [Dansyl-FRR-amide] (Dansyl-Phe-Arg-Arg-NH2), the “Relative Binding Index (RBI)” value worked out at 8 a.u.

`CN(C)c1cccc2c(S(=O)(=O)N[C@@H](CC(N)=O)C(=O)N[C@@H](CCCCN)C(=O)N[C@@H](CCCNC(=N)N)C(N)=O)cccc12` [Dansyl-NKR-amide] (Dansyl-Asn-Lys-Arg-NH2): the “Relative Binding Index (RBI)” value amounted to 10 a.u.

Regarding `C[C@@H](O)[C@H](NC(=O)[C@H](Cc1ccc(O)cc1)NS(=O)(=O)c1cccc2c(N(C)C)cccc12)C(=O)N[C@@H](CCCNC(=N)N)C(N)=O` [Dansyl-YTR-amide] (Dansyl-Tyr-Thr-Arg-NH2), the “Relative Binding Index (RBI)” value stood at 13 a.u.

For the molecule `CN(C)c1cccc2c(S(=O)(=O)N[C@@H](CCCCN)C(=O)N[C@@H](CCCNC(=N)N)C(=O)N[C@@H](CCCNC(=N)N)C(N)=O)cccc12` [Dansyl-KRR-amide] (Dansyl-Lys-Arg-Arg-NH2), the “Relative Binding Index (RBI)” value was 23 a.u.

Turning to `CN(C)c1cccc2c(S(=O)(=O)N3CCC[C@H]3C(=O)N[C@@H](CC(N)=O)C(=O)N[C@@H](CCCNC(=N)N)C(N)=O)cccc12` [Dansyl-PNR-amide] (Dansyl-Pro-Asn-Arg-NH2), the “Relative Binding Index (RBI)” value was −47 a.u.

On to `CSCC[C@H](NS(=O)(=O)c1cccc2c(N(C)C)cccc12)C(=O)N[C@@H](Cc1c[nH]cn1)C(=O)N[C@@H](CCCNC(=N)N)C(N)=O` [Dansyl-MHR-amide] (Dansyl-Met-His-Arg-NH2), for which the “Relative Binding Index (RBI)” value is given as −50 a.u.

As for `CC[C@H](C)[C@H](NS(=O)(=O)c1cccc2c(N(C)C)cccc12)C(=O)N[C@@H](Cc1ccccc1)C(=O)N[C@@H](CCCNC(=N)N)C(N)=O` [Dansyl-IFR-amide] (Dansyl-Ile-Phe-Arg-NH2), the “Relative Binding Index (RBI)” value was −12 a.u.

Regarding `CC(C)C[C@H](NS(=O)(=O)c1cccc2c(N(C)C)cccc12)C(=O)N1CCC[C@H]1C(=O)N[C@@H](CCCNC(=N)N)C(N)=O` [Dansyl-LPR-amide] (Dansyl-Leu-Pro-Arg-NH2), the “Relative Binding Index (RBI)” value is −29 a.u.

As to `CSCC[C@H](NC(=O)[C@H](CC(C)C)NS(=O)(=O)c1cccc2c(N(C)C)cccc12)C(=O)N[C@@H](CCCNC(=N)N)C(N)=O` [Dansyl-LMR-amide] (Dansyl-Leu-Met-Arg-NH2), the “Relative Binding Index (RBI)” value was −32 a.u.

As to `CN(C)c1cccc2c(S(=O)(=O)N[C@@H](CCC(N)=O)C(=O)N[C@@H](Cc3ccc(O)cc3)C(=O)N[C@@H](CCCNC(=N)N)C(N)=O)cccc12` [Dansyl-QYR-amide] (Dansyl-Gln-Tyr-Arg-NH2), the “Relative Binding Index (RBI)” value is recorded as 20 a.u.

As to `CN(C)c1cccc2c(S(=O)(=O)N[C@@H](CC(=O)O)C(=O)N[C@@H](CCC(=O)O)C(=O)N[C@@H](CCCNC(=N)N)C(N)=O)cccc12` [Dansyl-DER-amide] (Dansyl-Asp-Glu-Arg-NH2), the “Relative Binding Index (RBI)” value is recorded as −5 a.u.

Take `CSCC[C@H](NC(=O)[C@H](Cc1cnc[nH]1)NS(=O)(=O)c1cccc2c(N(C)C)cccc12)C(=O)N[C@@H](CCCNC(=N)N)C(N)=O` [Dansyl-HMR-amide] (Dansyl-His-Met-Arg-NH2): the “Relative Binding Index (RBI)” value was found to be 17 a.u.

`CC(C)C[C@H](NC(=O)[C@H](CC(=O)O)NS(=O)(=O)c1cccc2c(N(C)C)cccc12)C(=O)N[C@@H](CCCNC(=N)N)C(N)=O` [Dansyl-DLR-amide] (Dansyl-Asp-Leu-Arg-NH2): the “Relative Binding Index (RBI)” value is recorded as −14 a.u.

Turning to `C[C@H](NS(=O)(=O)c1cccc2c(N(C)C)cccc12)C(=O)N[C@@H](CCC(=O)O)C(=O)N[C@@H](CCCNC(=N)N)C(N)=O` [Dansyl-AER-amide] (Dansyl-Ala-Glu-Arg-NH2), the “Relative Binding Index (RBI)” value came to 12 a.u.

With `C[C@H](NS(=O)(=O)c1cccc2c(N(C)C)cccc12)C(=O)N[C@@H](CC(N)=O)C(=O)N[C@@H](CCCNC(=N)N)C(N)=O` [Dansyl-ANR-amide] (Dansyl-Ala-Asn-Arg-NH2), the “Relative Binding Index (RBI)” value is 13 a.u.
